Test system: 422866-222-R5-J1-PDC complex spheroid viability
Assay: Anticancer human tumor 422866-222-R5-J1-PDC patient-derived pancreatic adenocarcinoma cell line growth inhibition [POLQ]
Conditions: for IC50: curve of first compound; for viability, T/C: stronger effect = lower value
Summary of the method: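 Complex spheroid viability model combining PDC tumour cells with endothelial (HUVEC) and MSC stromal cells. Novobiocin, ART-558 or RP6685 were tested singly and in combination with standard and investigational anticancer drugs. Each was titrated in half-log steps from near clinical Cmax, or from 10 microM where Cmax was unknown.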

[1] = second compound 0.0316 µM, first compound 0.0316 µM
[2] = second compound 0.0316 µM, first compound 0.1 µM
[3] = second compound 0.0316 µM, first compound 0.316 µM
[4] = second compound 0.0316 µM, first compound 1 µM
[5] = second compound 0.0316 µM, first compound 3.16 µM
[6] = second compound 0.0316 µM, first compound 10 µM
[7] = second compound 0.1 µM, first compound 0.0316 µM
[8] = second compound 0.1 µM, first compound 0.1 µM
[9] = second compound 0.1 µM, first compound 0.316 µM
[10] = second compound 0.1 µM, first compound 1 µM
[11] = second compound 0.1 µM, first compound 3.16 µM
[12] = second compound 0.1 µM, first compound 10 µM
[13] = second compound 0.316 µM, first compound 0.0316 µM
[14] = second compound 0.316 µM, first compound 0.1 µM
[15] = second compound 0.316 µM, first compound 0.316 µM
[16] = second compound 0.316 µM, first compound 1 µM
[17] = second compound 0.316 µM, first compound 3.16 µM
[18] = second compound 0.316 µM, first compound 10 µM
[19] = second compound 1 µM, first compound 0.0316 µM
[20] = second compound 1 µM, first compound 0.1 µM
[21] = second compound 1 µM, first compound 0.316 µM
[22] = second compound 1 µM, first compound 1 µM
[23] = second compound 1 µM, first compound 3.16 µM
[24] = second compound 1 µM, first compound 10 µM
[25] = second compound 3.16 µM, first compound 0.0316 µM
[26] = second compound 3.16 µM, first compound 0.1 µM
[27] = second compound 3.16 µM, first compound 0.316 µM
[28] = second compound 3.16 µM, first compound 1 µM
[29] = second compound 3.16 µM, first compound 3.16 µM
[30] = second compound 3.16 µM, first compound 10 µM
[31] = second compound 10 µM, first compound 0.0316 µM
[32] = second compound 10 µM, first compound 0.1 µM
[33] = second compound 10 µM, first compound 0.316 µM
[34] = second compound 10 µM, first compound 1 µM
[35] = second compound 10 µM, first compound 3.16 µM
[36] = second compound 10 µM, first compound 10 µM
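Note: spheroids exposed to compounds for one week before readout.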
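Throughout, for viability, T/C: percent of DMSO vehicle wells luminescence so 100% = untreated viability.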

With `C#Cc1c(F)ccc2cc(O)cc(-c3ncc4c(N5CC6CCC(C5)N6)nc(OCC56CCCN5CC(F)C6)nc4c3F)c12` (stereo not drawn) + Nc1ccc(C#CCN(C(=O)Cc2ncc(C(F)(F)F)cc2C(F)(F)F)c2ccc(F)cc2)nn1 the IC50 (second compound 0.0316 µM) was 733 nM, the IC50 (second compound 0.1 µM) was 727 nM and the IC50 (second compound 0.316 µM) was 813 nM. For the same molecule, the IC50 (second compound 1 µM) was 750 nM, the IC50 (second compound 3.16 µM) was 646 nM and the IC50 (second compound 10 µM) was 619 nM. The viability, T/C [1] was 95.4%, the viability, T/C [2] was 103% and the viability, T/C [3] was 62.8%. For the same molecule, the viability, T/C [4] was 48.7%, the viability, T/C [5] was 26.8% and the viability, T/C [6] was 26%. For the same molecule, the viability, T/C [7] was 101%, the viability, T/C [8] was 71.5% and the viability, T/C [9] was 67.6%. The viability, T/C [10] was 43.4%, the viability, T/C [11] was 32.1% and the viability, T/C [12] was 21.7%. It also gave a viability, T/C [13] of 88.2%, a viability, T/C [14] of 78.4% and a viability, T/C [15] of 66.2%. The viability, T/C [16] was 44.3%, the viability, T/C [17] was 37.1% and the viability, T/C [18] was 27.9%. It also gave a viability, T/C [19] of 102%, a viability, T/C [20] of 89.4% and a viability, T/C [21] of 67.4%. It also gave a viability, T/C [22] of 44.3%, a viability, T/C [23] of 30.6% and a viability, T/C [24] of 26%. The viability, T/C [25] was 93.1%, the viability, T/C [26] was 93% and the viability, T/C [27] was 57%. The viability, T/C [28] was 48.2%, the viability, T/C [29] was 26.6% and the viability, T/C [30] was 27.9%. It also gave a viability, T/C [31] of 89.6%, a viability, T/C [32] of 92.2% and a viability, T/C [33] of 62.3%. It also gave a viability, T/C [34] of 41.7%, a viability, T/C [35] of 35.3% and a viability, T/C [36] of 27.7%.
Molecule `CC1COCCN1c1cc(C2(S(C)(=N)=O)CC2)nc(-c2ccnc3[nH]ccc23)n1` (stereo not drawn) + Nc1ccc(C#CCN(C(=O)Cc2ncc(C(F)(F)F)cc2C(F)(F)F)c2ccc(F)cc2)nn1 has an IC50 (second compound 0.0316 µM) of 2460 nM, an IC50 (second compound 0.1 µM) of 1830 nM and an IC50 (second compound 0.316 µM) of 1750 nM. For the same molecule, the IC50 (second compound 1 µM) was 2120 nM, the IC50 (second compound 3.16 µM) was 1740 nM and the IC50 (second compound 10 µM) was 1900 nM. It also gave a viability, T/C [1] of 105%, a viability, T/C [2] of 81.7% and a viability, T/C [3] of 80.9%. For the same molecule, the viability, T/C [4] was 64.5%, the viability, T/C [5] was 38% and the viability, T/C [6] was 42.6%. For the same molecule, the viability, T/C [7] was 92%, the viability, T/C [8] was 96.5% and the viability, T/C [9] was 95.3%. The viability, T/C [10] was 58.9%, the viability, T/C [11] was 41.4% and the viability, T/C [12] was 42.2%. For the same molecule, the viability, T/C [13] was 89.8%, the viability, T/C [14] was 96% and the viability, T/C [15] was 89.7%. It also gave a viability, T/C [16] of 65.6%, a viability, T/C [17] of 32.5% and a viability, T/C [18] of 34%. For the same molecule, the viability, T/C [19] was 107%, the viability, T/C [20] was 112% and the viability, T/C [21] was 92.4%. The viability, T/C [22] was 70.5%, the viability, T/C [23] was 38.7% and the viability, T/C [24] was 28.2%. It also gave a viability, T/C [25] of 87.3%, a viability, T/C [26] of 108% and a viability, T/C [27] of 98.8%. For the same molecule, the viability, T/C [28] was 57.2%, the viability, T/C [29] was 40.8% and the viability, T/C [30] was 43.5%. It also gave a viability, T/C [31] of 109%, a viability, T/C [32] of 117% and a viability, T/C [33] of 102%. The viability, T/C [34] was 65.9%, the viability, T/C [35] was 37.8% and the viability, T/C [36] was 31.8%.
Work on `C=CC(=O)N1CCN(c2nc(=O)n(-c3c(C)ccnc3C(C)C)c3nc(-c4c(O)cccc4F)c(F)cc23)C(C)C1` (stereo not drawn) + Nc1ccc(C#CCN(C(=O)Cc2ncc(C(F)(F)F)cc2C(F)(F)F)c2ccc(F)cc2)nn1 yielded an IC50 (second compound 0.0316 µM) of less than 31.6 nM, an IC50 (second compound 0.1 µM) of less than 31.6 nM and an IC50 (second compound 0.316 µM) of less than 31.6 nM. For the same molecule, the IC50 (second compound 1 µM) was less than 31.6 nM, the IC50 (second compound 3.16 µM) was less than 31.6 nM and the IC50 (second compound 10 µM) was less than 31.6 nM. The viability, T/C [1] was 32.5%, the viability, T/C [2] was 28.5% and the viability, T/C [3] was 28.3%. For the same molecule, the viability, T/C [4] was 28.5%, the viability, T/C [5] was 27.4% and the viability, T/C [6] was 23.7%. The viability, T/C [7] was 32%, the viability, T/C [8] was 31.2% and the viability, T/C [9] was 24%. For the same molecule, the viability, T/C [10] was 25.7%, the viability, T/C [11] was 23.7% and the viability, T/C [12] was 22.4%. For the same molecule, the viability, T/C [13] was 40.1%, the viability, T/C [14] was 27.8% and the viability, T/C [15] was 29%. The viability, T/C [16] was 24.4%, the viability, T/C [17] was 25.1% and the viability, T/C [18] was 24.2%. The viability, T/C [19] was 34%, the viability, T/C [20] was 33.1% and the viability, T/C [21] was 25.9%. For the same molecule, the viability, T/C [22] was 23.2%, the viability, T/C [23] was 22.2% and the viability, T/C [24] was 21.1%. It also gave a viability, T/C [25] of 33.4%, a viability, T/C [26] of 27.7% and a viability, T/C [27] of 29.6%. For the same molecule, the viability, T/C [28] was 24.5%, the viability, T/C [29] was 24.4% and the viability, T/C [30] was 29.1%. For the same molecule, the viability, T/C [31] was 30.8%, the viability, T/C [32] was 32.6% and the viability, T/C [33] was 32.4%. For the same molecule, the viability, T/C [34] was 26.3%, the viability, T/C [35] was 24.9% and the viability, T/C [36] was 27.6%.
For `COc1cccc(OCCCN)c1-c1cc(Nc2cnc(C#N)cn2)n[nH]1` + COC1C(OC(N)=O)C(O)C(Oc2ccc3c(O)c(NC(=O)c4ccc(O)c(CC=C(C)C)c4)c(=O)oc3c2C)OC1(C)C, the IC50 (second compound 0.0316 µM) was 4.59 nM, the IC50 (second compound 0.1 µM) was 4.16 nM and the IC50 (second compound 0.316 µM) was less than 3.16 nM. It also gave an IC50 (second compound 1 µM) of less than 3.16 nM, an IC50 (second compound 3.16 µM) of 5.14 nM and an IC50 (second compound 10 µM) of less than 3.16 nM. For the same molecule, the viability, T/C (second compound 0.0316 µM, first compound 0.00316 µM) was 55.9%, the viability, T/C (second compound 0.0316 µM, first compound 0.01 µM) was 37.4% and the viability, T/C [1] was 33.7%. The viability, T/C [2] was 30.7%, the viability, T/C [3] was 26.7% and the viability, T/C [4] was 34.3%. It also gave a viability, T/C (second compound 0.1 µM, first compound 0.00316 µM) of 53%, a viability, T/C (second compound 0.1 µM, first compound 0.01 µM) of 42.1% and a viability, T/C [7] of 32.3%. It also gave a viability, T/C [8] of 29.5%, a viability, T/C [9] of 26.8% and a viability, T/C [10] of 42.6%. For the same molecule, the viability, T/C (second compound 0.316 µM, first compound 0.00316 µM) was 48.5%, the viability, T/C (second compound 0.316 µM, first compound 0.01 µM) was 39.9% and the viability, T/C [13] was 28.5%. For the same molecule, the viability, T/C [14] was 37.7%, the viability, T/C [15] was 32.1% and the viability, T/C [16] was 35.1%. The viability, T/C (second compound 1 µM, first compound 0.00316 µM) was 55.9%, the viability, T/C (second compound 1 µM, first compound 0.01 µM) was 39.3% and the viability, T/C [19] was 32.7%. The viability, T/C [20] was 37.3%, the viability, T/C [21] was 32.7% and the viability, T/C [22] was 47%. It also gave a viability, T/C (second compound 3.16 µM, first compound 0.00316 µM) of 54.7%, a viability, T/C (second compound 3.16 µM, first compound 0.01 µM) of 43% and a viability, T/C [25] of 41.4%. For the same molecule, the viability, T/C [26] was 30.1%, the viability, T/C [27] was 41.2% and the viability, T/C [28] was 32.8%. The viability, T/C (second compound 10 µM, first compound 0.00316 µM) was 54.2%, the viability, T/C (second compound 10 µM, first compound 0.01 µM) was 38.7% and the viability, T/C [31] was 39.1%. The viability, T/C [32] was 38%, the viability, T/C [33] was 30.9% and the viability, T/C [34] was 38.4%.

— PubChem BioAssay AID1963844 (Molecular Pharmacology Branch, DTP, NCI, 2024)
